PubChem BioAssay AID226 (DTP/NCI, 2004)
“And” between values parts separate entries of the source, which are not always exact repeats. Equal entries are not always repeated. Inconclusive results and toxic doses are left out.

Tested on: B6C3F1 mice, intracerebral ependymoblastoma, median survival T/C
Assay: NCI In Vivo Anticancer Drug Screen. Data for tumor model Ependymoblastoma (intracerebral) in B6C3F1 mice
Conditions: endpoint: median survival time, higher = longer survival
Method: The antitumor activity of compounds was measured in mice bearing transplantable tumors. Survival or tumor size were measured and the results are expressed as the measurement made in the treated group (T) divided by the measurement made in the vehicle treated control group (C). The tumor model used in this assay is Ependymoblastoma (intracerebral) in B6C3F1 mice

[1] = dose: 40.0 mg/kg/injection, schedule: Q01DX001 (ip), vehicle: saline
[2] = dose: 64.0 mg/kg/injection, schedule: Q01DX005 (ip), vehicle: saline with Tween-80

CN(N=O)C(N)=O
T/C (dose: 0.5 mg/kg/injection, schedule: Q01DX005 (ip), vehicle: saline + alcohol): 98 % of control and 101 % of control and 107 % of control | T/C (dose: 1.56 mg/kg/injection, schedule: Q01DX009 (ip), vehicle: saline): 161 % of control | T/C (dose: 2.0 mg/kg/injection, schedule: Q#A X002 (ip), vehicle: saline + alcohol): 115 % of control | T/C (dose: 3.12 mg/kg/injection, schedule: Q01DX009 (ip), vehicle: saline): 161 % of control | T/C (dose: 4.0 mg/kg/injection, schedule: Q01DX001 (ip), vehicle: saline + alcohol): 118 % of control and 120 % of control | T/C (dose: 4.0 mg/kg/injection, schedule: Q01DX005 (oral), vehicle: saline + alcohol): 150 % of control | T/C (dose: 4.0 mg/kg/injection, schedule: Q## X006 (ip), vehicle: saline + alcohol): 156 % of control | T/C (dose: 4.0 mg/kg/injection, schedule: Q#A X002 (ip), vehicle: saline + alcohol): 113 % of control | T/C (dose: 6.25 mg/kg/injection, schedule: Q01DX009 (ip), vehicle: saline): 164 % of control | T/C (dose: 8.0 mg/kg/injection, schedule: Q01DX001 (ip), vehicle: saline + alcohol): 121 % of control | T/C (dose: 8.0 mg/kg/injection, schedule: Q## X004 (ip), vehicle: saline + alcohol): 150 % of control | T/C (dose: 8.0 mg/kg/injection, schedule: Q## X006 (ip), vehicle: saline + alcohol): 156 % of control | T/C (dose: 10.0 mg/kg/injection, schedule: Q01DX001 (ip), vehicle: saline + alcohol): 157 % of control | T/C (dose: 16.0 mg/kg/injection, schedule: Q01DX001 (oral), vehicle: saline + alcohol): 123 % of control | T/C (dose: 16.0 mg/kg/injection, schedule: Q01DX005 (ip), vehicle: Klucel (hydroxypropylcellulose) (HPC)): 118 % of control | T/C (dose: 16.0 mg/kg/injection, schedule: Q01DX005 (oral), vehicle: saline + alcohol): 150 % of control | T/C (dose: 16.0 mg/kg/injection, schedule: Q## X006 (ip), vehicle: saline + alcohol): 162 % of control | T/C (dose: 20.0 mg/kg/injection, schedule: Q01DX001 (ip), vehicle: saline + alcohol): 157 % of control | T/C (dose: 32.0 mg/kg/injection, schedule: Q01DX001 (ip), vehicle: saline + alcohol): 116 % of control | T/C (dose: 32.0 mg/kg/injection, schedule: Q01DX001 (oral), vehicle: saline + alcohol): 118 % of control | T/C (dose: 32.0 mg/kg/injection, schedule: Q01DX005 (oral), vehicle: saline + alcohol): 94 % of control | T/C (dose: 32.0 mg/kg/injection, schedule: Q## X004 (ip), vehicle: saline + alcohol): 178 % of control | T/C (dose: 40.0 mg/kg/injection, schedule: Q01DX001 (ip), vehicle: saline + alcohol): 161 % of control | T/C [1]: 122 % of control | T/C (dose: 64.0 mg/kg/injection, schedule: Q01DX001 (oral), vehicle: saline + alcohol): 111 % of control | T/C (dose: 80.0 mg/kg/injection, schedule: Q01DX001 (ip), vehicle: saline + alcohol): 183 % of control | T/C (dose: 128.0 mg/kg/injection, schedule: Q01DX001 (oral), vehicle: saline + alcohol): 107 % of control and 121 % of control | T/C (dose: 256.0 mg/kg/injection, schedule: Q01DX001 (oral), vehicle: saline + alcohol): 112 % of control

O=P1(N(CCCl)CCCl)NCCCO1 (stereo not drawn)
T/C [1]: 109 % of control | T/C (dose: 320.0 mg/kg/injection, schedule: Q01DX001 (ip), vehicle: saline): 163 % of control

COc1ccc(CC2C(=O)NC(C)C(=O)N(C)C3C(=O)N(C)C(Cc4ccc(O)c(c4)Oc4ccc(cc4)C3O)C(=O)NC(C)C(=O)NC(C)C(=O)N2C)cc1 (stereo not drawn)
T/C (dose: 0.25 mg/kg/injection, schedule: Q01DX005 (ip), vehicle: Klucel (hydroxypropylcellulose) (HPC)): 103 % of control | T/C (dose: 0.25 mg/kg/injection, schedule: Q01DX005 (ip), vehicle: saline with Tween-80): 105 % of control | T/C (dose: 0.5 mg/kg/injection, schedule: Q01DX005 (ip), vehicle: Klucel (hydroxypropylcellulose) (HPC)): 107 % of control | T/C (dose: 0.5 mg/kg/injection, schedule: Q01DX005 (ip), vehicle: saline with Tween-80): 114 % of control | T/C (dose: 1.0 mg/kg/injection, schedule: Q01DX005 (ip), vehicle: Klucel (hydroxypropylcellulose) (HPC)): 106 % of control | T/C (dose: 1.0 mg/kg/injection, schedule: Q01DX005 (ip), vehicle: saline with Tween-80): 113 % of control | T/C (dose: 2.0 mg/kg/injection, schedule: Q01DX005 (ip), vehicle: Klucel (hydroxypropylcellulose) (HPC)): 96 % of control | T/C (dose: 2.0 mg/kg/injection, schedule: Q01DX005 (ip), vehicle: saline with Tween-80): 114 % of control | T/C (dose: 4.0 mg/kg/injection, schedule: Q01DX005 (ip), vehicle: saline with Tween-80): 97 % of control

O=C(N/N=C\c1cc(Br)cc(Br)c1O)N/N=C/c1cc(Br)cc(Br)c1O
T/C (dose: 32.0 mg/kg/injection, schedule: Q01DX005 (ip), vehicle: saline with Tween-80): 109 % of control | T/C [2]: 106 % of control | T/C (dose: 128.0 mg/kg/injection, schedule: Q01DX005 (ip), vehicle: saline with Tween-80): 105 % of control | T/C (dose: 256.0 mg/kg/injection, schedule: Q01DX005 (ip), vehicle: saline with Tween-80): 106 % of control | T/C (dose: 512.0 mg/kg/injection, schedule: Q01DX005 (ip), vehicle: saline with Tween-80): 99 % of control

CCCCC(=O)OCC1OC(n2cnc3c(=S)nc[nH]c32)C(OC(=O)CCCC)C1OC(=O)CCCC (stereo not drawn)
T/C (dose: 25.0 mg/kg/injection, schedule: Q01DX005 (ip), vehicle: saline with Tween-80): 116 % of control | T/C (dose: 50.0 mg/kg/injection, schedule: Q01DX005 (ip), vehicle: saline with Tween-80): 99 % of control | T/C (dose: 100.0 mg/kg/injection, schedule: Q01DX005 (ip), vehicle: saline with Tween-80): 103 % of control

COc1cc(C[C@H]2c3cc(OC)c(OC)cc3CCN2C)c(Oc2cc3c(cc2OC)-c2c(OC)c(OC)cc4c2[C@H](C3)N(C)CC4)cc1OC
T/C (dose: 12.5 mg/kg/injection, schedule: Q01DX005 (ip), vehicle: Klucel (hydroxypropylcellulose) (HPC)): 94 % of control | T/C (dose: 25.0 mg/kg/injection, schedule: Q01DX005 (ip), vehicle: Klucel (hydroxypropylcellulose) (HPC)): 100 % of control | T/C (dose: 50.0 mg/kg/injection, schedule: Q01DX005 (ip), vehicle: Klucel (hydroxypropylcellulose) (HPC)): 100 % of control and 102 % of control and 105 % of control | T/C (dose: 100.0 mg/kg/injection, schedule: Q01DX005 (ip), vehicle: Klucel (hydroxypropylcellulose) (HPC)): 102 % of control

CCCCN(C)N=Nc1c(C(N)=O)n[nH]c1C
T/C [2]: 166 % of control

N=[N+]=CC(=O)CCC(NC(=O)C(CCC(=O)C=[N+]=N)NC(=O)CCC(N)C(=O)O)C(=O)O (stereo not drawn)
T/C (dose: 0.05 mg/kg/injection, schedule: Q01DX005 (ip), vehicle: Klucel (hydroxypropylcellulose) (HPC)): 100 % of control and 106 % of control | T/C (dose: 0.1 mg/kg/injection, schedule: Q01DX005 (ip), vehicle: Klucel (hydroxypropylcellulose) (HPC)): 90 % of control and 107 % of control | T/C (dose: 0.2 mg/kg/injection, schedule: Q01DX005 (ip), vehicle: Klucel (hydroxypropylcellulose) (HPC)): 99 % of control and 108 % of control | T/C (dose: 0.4 mg/kg/injection, schedule: Q01DX005 (ip), vehicle: Klucel (hydroxypropylcellulose) (HPC)): 97 % of control and 114 % of control

S=P(N1CC1)(N1CC1)N1CC1.[Cl-].[Cl-].[NH2-].[NH2-].[Pt+4]
T/C (dose: 3.0 mg/kg/injection, schedule: Q01DX005 (ip), vehicle: dextrose): 122 % of control | T/C (dose: 6.0 mg/kg/injection, schedule: Q01DX005 (ip), vehicle: dextrose): 155 % of control
